Where two headings read alike, the source gives them in different places.
Assays:
[1] = system: Ustilago segetum var. avenae; assay: in vitro-Test with fungal microorganisms, Method B (tables I6-I11); assay type: cell-based; details: read-out: Efficacy %
Method in brief: (§1)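 Efficacy scale: 0% means growth equal to the untreated control, 100% means none detected. Compounds are dried from methanol with emulsifier before adding inoculated growth medium; incubation at 20° C., 85% relative humidity for 3 to 7 days precedes photometric inhibition readout.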

Alternaria alternata = assay: in vitro-Test with fungal microorganisms, Method B (tables A13-A22); assay type: cell-based
Method in brief: as §1

Parastagonospora nodorum = assay: in vitro-Test with fungal microorganisms, Method B (tables H5-H8); assay type: cell-based; details: Parastagonospora nodorum, read-out: Efficacy
Procedure: (§2) Example: In Vitro-Test with Fungal Microorganisms
(§3) Wells of 96-well microtiter plates are filled with 30 μl of a preparation of test compound or compound combination in methanol+emulsifier alkylaryl-polyglycol-ether. Thereafter, the solvent is evaporated in a hood. At the next step, 200 μl of liquid growth medium is given, that has been amended with an appropriate concentration of spores or mycelium suspension of the test fungus.
(§4) With the aid of a photometer, the extinction in all wells is measured at the wavelength of 600 nm.
(§5) The microtiter plates are incubated for 3 to 7 days at 20° C. and 85% relative humidity. After the incubation inhibition of growth is determined photometrically. Efficacy is calculated in relation to the untreated control, 0% efficacy means fungal growth as high as in untreated control while 100% efficacy means no fungal growth is measured.
(§6) The data in tables A1 to A12, B1 to B14, C1 to C10, D1 to D8, E1 to E8, F1 to F11, G1 to G4, H1 to H4 and I1 to I5 were collected according to Method A. The data in tables A13 to A22, B15 to B18, C11 to C20, E9 to E16, F12 to F15, G5 to G15, H5 to H8, I6 to I11 and J1 to J11 were collected according to Method B.

Diaporthe citri [2] = assay: in vitro-Test with fungal microorganisms, Method A (tables F1-F11); assay type: cell-based; details: Diaporthe citri, read-out: Efficacy
Method in brief: (§7)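 Growth inhibition was measured photometrically at 620 nm 3–5 days after application, with 100% efficacy meaning no growth and 0% meaning growth equal to the untreated control. Fungal spore or mycelium suspension in potato dextrose broth was added onto solvent-evaporated compound and incubated at 20° C and 85% relative humidity.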

Fusarium culmorum [3] = assay: in vitro-Test with fungal microorganisms, Method A (tables G1-G4); assay type: cell-based; details: Fusarium culmorum, alone, read-out: Efficacy
Method in brief: as §7

Cercospora beticola [4] = assay: in vitro-Test with fungal microorganisms, Method A (tables C1-C10); assay type: cell-based; details: Cercospora beticola, read-out: Efficacy %
Method in brief: as §7

Alternaria alternate = assay: in vitro-Test with fungal microorganisms, Method A (tables A1-A12); assay type: cell-based, Alternaria alternata; details: Alternaria, applied alone, read-out: Efficacy %
Method in brief: as §7

Cordana musae [5] = assay: in vitro-Test with fungal microorganisms, Method B (tables E9-E16); assay type: cell-based; details: Neocordana musae, single active, read-out: Efficacy
Method in brief: as §1

Cordana musae [6] = assay: in vitro-Test with fungal microorganisms, Method A (tables E1-E8); assay type: cell-based; details: Neocordana musae, read-out: Efficacy %
Method in brief: as §7

[7] = system: Ustilago segetum var. avenae; assay: in vitro-Test with fungal microorganisms, Method A (tables I1-I5); assay type: cell-based; details: alone, 0.8 ppm; read-out: Efficacy %
Method in brief: as §7

Fusarium culmorum [8] = assay: in vitro-Test with fungal microorganisms, Method B (tables G5-G15); assay type: cell-based; details: for inhibition of growth at 0.04 ppm / inhibition of growth at 0.2 ppm / inhibition of growth at 1 ppm / inhibition of growth at 5 ppm: Fusarium culmorum, read-out: Efficacy
Method in brief: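 Cpd in MeOH + alkylaryl-polyglycol-ether, solvent evaporated; liquid medium + fungal spores/mycelium added; OD600 read; 3–7 d, 20° C., 85% RH; growth inhibition by photometry, % efficacy vs untreated ctrl.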

Botrytis cinerea = assay: in vitro-Test with fungal microorganisms, Method A (tables B1-B14); assay type: cell-based; details: Botrytis cinerea
Method in brief: as §7

Colletotrichum coccodes = assay: in vitro-Test with fungal microorganisms, Method B (tables J1-J11); assay type: cell-based; details: Colletotrichum coccodes, read-out: Efficacy %; for inhibition of growth at 5 ppm: single active compound at 5 ppm
Method in brief: as §1

Cercospora beticola [9] = assay: in vitro-Test with fungal microorganisms, Method B (tables C11-C20); assay type: cell-based; details: Cercospora beticola, read-out: Efficacy %
Method in brief: as §1

[10] = system: Colletotrichum lindemuthianum; assay: in vitro-Test with fungal microorganisms, Method A (tables D1-D8); assay type: cell-based; details: Colletotrichum lindemuthianum, read-out: Efficacy %
Method in brief: as §7

Diaporthe citri [11] = assay: in vitro-Test with fungal microorganisms, Method B (tables F12-F15); assay type: cell-based
Procedure: as §2, §3, §4, §5, §6

In the case of `O=C1C2CC=CCC2C(=O)N1SC(Cl)(Cl)Cl` (centres unmarked) [(5.003) captan, captan], the inhibition of growth at 1 ppm ([1]; 1 ppm) is reported as 28%, the inhibition of growth at 0.2 ppm (Alternaria alternata; Alternaria alternata, single compound, 0.2 ppm, read-out: Efficacy) is reported as 0% and the inhibition of growth at 0.04 ppm (Parastagonospora nodorum) is reported as 0%. The inhibition of growth at 0.8 ppm (Diaporthe citri [2]; Table F10, 0.8 ppm alone) was 18%, the inhibition of growth at 4 ppm (Diaporthe citri [2]; Table F10, 4.0 ppm alone) was 100% and the inhibition of growth at 20 ppm (Diaporthe citri [2]; Table F10, 20.0 ppm alone) was 100%. The inhibition of growth at 0.8 ppm (Diaporthe citri [2]; applied alone, 0.8 ppm) was 9%, the inhibition of growth at 4 ppm (Diaporthe citri [2]; applied alone, 4.0 ppm) was 99% and the inhibition of growth at 0.8 ppm (Diaporthe citri [2]; single active, 0.8 ppm) was 24%. It also gave an inhibition of growth at 4 ppm (Diaporthe citri [2]; single active, 4.0 ppm) of 88%, an inhibition of growth at 0.8 ppm (Fusarium culmorum [3]; 0.8 ppm) of 0% and an inhibition of growth at 4 ppm (Fusarium culmorum [3]; 4.0 ppm) of 100%. It also gave an inhibition of growth at 20 ppm (Fusarium culmorum [3]; 20.0 ppm) of 100%, an inhibition of growth at 0.8 ppm (Cercospora beticola [4]; 0.8 ppm alone) of 0% and an inhibition of growth at 0.8 ppm (Cercospora beticola [4]; 0.8 ppm) of 0%. It also gave an inhibition of growth at 4 ppm (Cercospora beticola [4]) of 100%, an inhibition of growth at 20 ppm (Cercospora beticola [4]) of 100% and an inhibition of growth at 20 ppm (Alternaria alternate) of 56%. For the same compound, the inhibition of growth at 0.04 ppm (Cordana musae [5]) was 0%, the inhibition of growth at 1 ppm (Cordana musae [5]) was 0% and the inhibition of growth at 5 ppm (Cordana musae [5]) was 100%. The inhibition of growth at 4 ppm (Cordana musae [6]; mixing partner alone) was 0%, the inhibition of growth at 4 ppm (Cordana musae [6]; single substance) was 100% and the inhibition of growth at 20 ppm (Cordana musae [6]; single substance, 20.0 ppm) was 100%. The inhibition of growth at 0.8 ppm [7] was 0%, the inhibition of growth at 0.04 ppm (Fusarium culmorum [8]; single active compound) was 0% and the inhibition of growth at 0.2 ppm (Fusarium culmorum [8]; single active compound) was 16%. For the same compound, the inhibition of growth at 1 ppm (Fusarium culmorum [8]; single active compound) was 18%, the inhibition of growth at 5 ppm (Fusarium culmorum [8]; single active compound, 5 ppm) was 100% and the inhibition of growth at 0.8 ppm (Botrytis cinerea; read-out: Efficacy) was 0%. The inhibition of growth at 4 ppm (Botrytis cinerea; read-out: Efficacy) was 0%, the inhibition of growth at 20 ppm (Botrytis cinerea; read-out: Efficacy) was 7% and the inhibition of growth at 0.8 ppm (Botrytis cinerea; alone, read-out: Efficacy %) was 0%. For the same compound, the inhibition of growth at 20 ppm (Botrytis cinerea; alone, read-out: Efficacy %) was 100%, the inhibition of growth at 0.2 ppm (Colletotrichum coccodes; 0.2 ppm) was 0% and the inhibition of growth at 0.04 ppm (Colletotrichum coccodes; single active compound at 0.04 ppm) was 53%. It also gave an inhibition of growth at 0.2 ppm (Colletotrichum coccodes; single active compound at 0.2 ppm) of 0%, an inhibition of growth at 1 ppm (Colletotrichum coccodes; single active compound at 1 ppm) of 0% and an inhibition of growth at 5 ppm (Colletotrichum coccodes) of 100%. It also gave an inhibition of growth at 0.04 ppm (Cercospora beticola [9]; single compound, 0.04 ppm) of 0%, an inhibition of growth at 0.4 ppm (Cercospora beticola [9]; single compound, 0.4 ppm) of 0% and an inhibition of growth at 5 ppm (Cercospora beticola [9]; single compound) of 100%. The inhibition of growth at 0.8 ppm ([10]; mixing partner alone, 0.8 ppm) was 3%, the inhibition of growth at 4 ppm ([10]; mixing partner alone, 4.0 ppm) was 100% and the inhibition of growth at 20 ppm ([10]; mixing partner alone, 20.0 ppm) was 100%. It also gave an inhibition of growth at 0.8 ppm ([10]; single active at 0.8 ppm) of 0%, an inhibition of growth at 4 ppm ([10]; single active at 4.0 ppm) of 100% and an inhibition of growth at 20 ppm ([10]; single active at 20.0 ppm) of 100%.

Work on `COc1cc(C)c(C(=O)c2c(OC)ccc(Br)c2C)c(OC)c1OC` [(15.016) metrafenone, metrafenone] yielded an inhibition of growth at 0.04 ppm ([1]; 0.04 ppm) of 4%, an inhibition of growth at 0.2 ppm ([1]; 0.2 ppm) of 0% and an Efficacy (Alternaria alternata; 0.2 ppm) of 3%. It also gave an inhibition of growth at 0.2 ppm (Alternaria alternata; Alternaria alternata, 0.2 ppm, read-out: Efficacy) of 3%, an inhibition of growth at 1 ppm (Alternaria alternata; Alternaria alternata, read-out: Efficacy) of 6% and an inhibition of growth at 5 ppm (Alternaria alternata; Alternaria alternata, 5 ppm, read-out: Efficacy) of 16%. The inhibition of growth at 1 ppm (Alternaria alternata; Alternaria alternata, single compound, read-out: Efficacy) was 0%, the inhibition of growth at 0.04 ppm (Parastagonospora nodorum) was 0% and the inhibition of growth at 0.2 ppm (Parastagonospora nodorum; 0.2 ppm) was 0%. It also gave an inhibition of growth at 1 ppm (Parastagonospora nodorum; 1 ppm) of 0%, an inhibition of growth at 5 ppm (Parastagonospora nodorum; 5 ppm) of 32% and an inhibition of growth at 0.8 ppm (Diaporthe citri [2]; Table F11, 0.8 ppm alone) of 0%. The inhibition of growth at 4 ppm (Diaporthe citri [2]; Table F11, 4.0 ppm alone) was 0%, the inhibition of growth at 20 ppm (Diaporthe citri [2]; Table F11, 20.0 ppm alone) was 0% and the inhibition of growth at 0.8 ppm (Diaporthe citri [2]; applied alone, 0.8 ppm) was 0%. The inhibition of growth at 4 ppm (Diaporthe citri [2]; applied alone, 4.0 ppm) was 10%, the inhibition of growth at 20 ppm (Diaporthe citri [2]; applied alone, 20.0 ppm) was 0% and the inhibition of growth at 0.8 ppm (Cercospora beticola [4]; 0.8 ppm) was 10%. The inhibition of growth at 4 ppm (Cercospora beticola [4]) was 0%, the inhibition of growth at 20 ppm (Cercospora beticola [4]) was 0% and the inhibition of growth at 0.8 ppm (Alternaria alternate; 0.8 ppm) was 0%. For the same compound, the inhibition of growth at 4 ppm (Alternaria alternate; 4 ppm) was 0%, the inhibition of growth at 20 ppm (Alternaria alternate) was 11% and the inhibition of growth at 0.04 ppm (Cordana musae [5]) was 0%. It also gave an inhibition of growth at 0.2 ppm (Cordana musae [5]; 0.2 ppm) of 0%, an inhibition of growth at 1 ppm (Cordana musae [5]) of 0% and an inhibition of growth at 5 ppm (Cordana musae [5]) of 11%. The inhibition of growth at 1 ppm (Fusarium culmorum [8]; alone) was 4%, the inhibition of growth at 0.04 ppm (Fusarium culmorum [8]; single active compound) was 0% and the inhibition of growth at 0.2 ppm (Fusarium culmorum [8]; single active compound) was 0%. It also gave an inhibition of growth at 1 ppm (Fusarium culmorum [8]; single active compound) of 7%, an inhibition of growth at 5 ppm (Fusarium culmorum [8]; single active compound, 5 ppm) of 13% and an Efficacy (Fusarium culmorum [8]; single active compound, 5 ppm) of 13%. The inhibition of growth at 4 ppm (Botrytis cinerea; alone, read-out: Efficacy %) was 0%, the inhibition of growth at 20 ppm (Botrytis cinerea; alone, read-out: Efficacy %) was 0% and the inhibition of growth at 5 ppm (Colletotrichum coccodes) was 2%. For the same compound, the inhibition of growth at 0.2 ppm (Cercospora beticola [9]) was 0%, the inhibition of growth at 1 ppm (Cercospora beticola [9]; 1 ppm) was 0% and the inhibition of growth at 5 ppm (Cercospora beticola [9]) was 10%. The inhibition of growth at 0.2 ppm (Cercospora beticola [9]; single compound) was 0%, the inhibition of growth at 5 ppm (Cercospora beticola [9]; single compound) was 1% and the inhibition of growth at 0.8 ppm ([10]; mixing partner alone, 0.8 ppm) was 10%. The inhibition of growth at 4 ppm ([10]; mixing partner alone, 4.0 ppm) was 12%, the inhibition of growth at 20 ppm ([10]; mixing partner alone, 20.0 ppm) was 21% and the Efficacy (Diaporthe citri [11]; Table F12, 1 ppm alone) was 3%. The Efficacy (Diaporthe citri [11]; Table F12, 5 ppm alone) was 0%, the Efficacy (Diaporthe citri [11]; Table F14, 0.04 ppm alone) was 0% and the Efficacy (Diaporthe citri [11]; Table F14, 0.2 ppm alone) was 0%. For the same compound, the Efficacy (Diaporthe citri [11]; Table F14, 1 ppm alone) was 0% and the Efficacy (Diaporthe citri [11]; Table F14, 5 ppm alone) was 0%.

Reference: patent US12653191B2, “Active compound combinations” (Bayer Aktiengesellschaft, priority 2020, dated 2026)
